In US9302999B2, “Substituted triazoles as herbicides” (E. I. DU PONT DE NEMOURS AND COMPANY, priority 2012, dated 2016):

Legend:
[1] = system: foxtail, giant (giant foxtail, Setaria faberii); test: Test E pre-/postemergence: foxtail, giant; format: in vivo; details: Preemergence, scale 0 to 100
From the text: (§1) Seeds of plant species selected from corn (Zea mays), soybean (Glycine max), velvetleaf (Abutilon theophrasti), lambsquarters (Chenopodium album), poinsettia, wild (wild poinsettia, Euphorbia heterophylla), pigweed, palmer (palmer pigweed, Amaranthus palmeri), waterhemp (common waterhemp, Amaranthus rudis), smartweed (ladysthumb smartweed, Polygonum persicaria), surinam grass (Brachiaria decumbens), crabgrass, large (large crabgrass, Digitaria sanguinalis), crabgrass, Brazil (Brazilian crabgrass, Digitaria horizontalis), panicum, fall (fall panicum, Panicum dichotomiflorum), foxtail, giant (giant foxtail, Setaria faberii), foxtail, green (green foxtail, Setaria viridis), goosegrass (Eleusine indica), johnsongrass (Sorghum halepense), ragweed (common ragweed, Ambrosia elation), barnyardgrass (Echinochloa crus-galli), sandbur (southern sandbur, Cenchrus echinatus), arrowleaf sida (Sida rhombifolia), ryegrass, Italian (Italian ryegrass, Lolium multiflorum), dayflower, (VA) (Virginia dayflower, Commelina virginica), field bindweed (Convolvulus arvensis), cocklebur (common cocklebur, Xanthium strumarium), morningglory (Ipomoea coccinea), nightshade (eastern black nightshade, Solanum ptycanthum), kochia (Kochia scoparia), nutsedge, yellow (yellow nutsedge, Cyperus esculentus) and beggarticks (hairy beggarticks, Bidens pilosa) were planted into a silt loam soil and treated preemergence with test chemicals formulated in a non-phytotoxic solvent mixture which included a surfactant. At the same time, plants selected from these crop and weed species were planted in pots containing a growing medium comprising spaghnum peat moss, vermiculite, wetting agent and starter nutrients and treated with postemergence applications of some of the test chemicals formulated in the same manner. Plants ranged in height from 2 to 18 cm for postemergence treatments (1- to 4-leaf stage).
(§2) Treated plants and controls were maintained in a greenhouse for 14 to 21 days, after which time all species were compared to controls and visually evaluated. Plant response ratings, summarized in Table E, are based on a scale of 0 to 100 where 0 is no effect and 100 is complete control. A dash (-) response means no test result.

[2] = system: ryegrass, Italian (Italian ryegrass, Lolium multiflorum); test: Test E pre-/postemergence: ryegrass, Italian; format: in vivo; details: scale 0 to 100
From the text: as §1, §2

[3] = system: beggarticks (hairy beggarticks, Bidens pilosa); test: Test F pre-/postemergence: beggarticks; format: in vivo
From the text: (§3) Seeds of plant species selected from corn (Zea mays), soybean (Glycine max), velvetleaf (Abutilon theophrasti), lambsquarters (Chenopodium album), poinsettia, wild (wild poinsettia, Euphorbia heterophylla), pigweed, palmer (palmer pigweed, Amaranthus palmeri), waterhemp (common waterhemp, Amaranthus rudis), surinam grass (Brachiaria decumbens), crabgrass, Brazil (Brazilian crabgrass, Digitaria horizontalis), panicum, fall (fall panicum Panicum dichotomiflorum), crabgrass, large (large crabgrass, Digitaria sanguinalis), foxtail, giant (giant foxtail, Setaria faberii), foxtail, green (green foxtail Setaria viridis), goosegrass (Eleusine indica), ragweed (common ragweed, Ambrosia elatior), barnyardgrass (Echinochloa crus-galli), sandbur (southern sandbur, Cenchrus echinatus), arrowleaf sida (Sida rhombifolia), ryegrass, Italian (Italian ryegrass, Lolium multiflorum), dayflower, VA (Virginia (VA) dayflower, Commelina virginica), field bindweed (Convolvulus arvensis), cocklebur (common cocklebur, Xanthium strumarium), morningglory (Ipomoea coccinea), nightshade (eastern black nightshade, Solanum ptycanthum), kochia (Kochia scoparia), nutsedge, yellow (yellow nutsedge, Cyperus esculentus), johnsongrass (Sorghum halepense), smartweed (ladysthumb smartweed, Polygonum persicaria), and beggarticks (hairy beggarticks, Bidens pilosa), were planted into a silt loam soil and treated preemergence with test chemicals formulated in a non-phytotoxic solvent mixture which included a surfactant. At the same time, plants selected from these crop and weed species and also pigweed (Amaranthus retroflexus), waterhemp_RES1 (ALS/Triazine resistant common waterhemp, Amaranthus rudis) and waterhemp_RES2 (ALS/HPPD resistant common waterhemp, Amaranthus rudis) were planted in pots containing a planting medium comprising spaghnum peat moss, vermiculite, wetting agent and starter nutrients treated with postemergence applications of some of the test chemicals formulated in the same manner. Plants ranged in height from 2 to 18 cm for postemergence treatments (1- to 4-leaf stage).
as §2

[4] = system: pigweed, palmer (palmer pigweed, Amaranthus palmeri); test: Test F pre-/postemergence: pigweed, palmer; format: in vivo
From the text: as §3, §2

Barnyardgrass = test: Test C postemergence: barnyardgrass; format: in vivo, Echinochloa crus-galli; details: 125 g ai/ha, scale 0 to 100, 0 no effect, 100 complete control
From the text: Seeds of plant species selected from blackgrass (Alopecurus myosuroides), bromegrass, downy (downy bromegrass, Bromus tectorum), foxtail, green (green foxtail, Setaria viridis), ryegrass, Italian (Italian ryegrass, Lolium multiflorum), winter wheat (Triticum aestivum), wild oat (Avena fatua), galium (catchweed bedstraw, Galium aparine), bermudagrass (Cynodon dactylon), surinam grass (Brachiaria decumbens), cocklebur (common cocklebur, Xanthium strumarium), corn (Zea mays), large crabgrass (Digitaria sanguinalis), woolly cupgrass (Eriochloa villosa), foxtail, giant (giant foxtail, Setaria faberii), goosegrass (Eleusine indica), johnsongrass (Sorghum halepense), kochia (Kochia scoparia), lambsquarters (Chenopodium album), morningglory (Ipomoea coccinea), nightshade (eastern black nightshade, Solanum ptycanthum), nutsedge, yellow (yellow nutsedge, Cyperus esculentus), pigweed (Amaranthus retroflexus), ragweed (common ragweed, Ambrosia elation), soybean (Glycine max), common (oilseed) sunflower (Helianthus annuus), Russian thistle (Salsola kali) and velvetleaf (Abutilon theophrasti) were planted into a blend of loam soil and sand and treated preemergence with test chemicals formulated in a non-phytotoxic solvent mixture which included a surfactant.
(§4) At the same time, plants selected from these crop and weed species and also barley (winter barley, Hordeum vulgare), canarygrass (Phalaris minor), chickweed (common chickweed, Stellaria media) windgrass (Apera spica-venti) and deadnettle (henbit deadnettle, Lamium amplexicaule) were planted in pots containing Redi-Earth® planting medium (Scotts Company, 14111 Scottslawn Road, Marysville, Ohio 43041) comprising spaghnum peat moss, vermiculite, wetting agent and starter nutrients and treated with postemergence applications of test chemicals formulated in the same manner. Plants ranged in height from 2 to 18 cm (1- to 4-leaf stage) for postemergence treatments.
(§5) Treated plants and controls were maintained in a greenhouse for 13 to 15 days, after which time all species were compared to controls and visually evaluated. Plant response ratings, summarized in Table C, are based on a scale of 0 to 100 where 0 is no effect and 100 is complete control. A dash (-) response means no test result.

Oilseed Rape = test: Test C postemergence: oilseed rape; format: in vivo
From the text: as §4, §5

[5] = Preemergence, 16 g ai/ha, scale 0 to 100 (0 no effect, 100 complete control)
[6] = Preemergence, 31 g ai/ha, scale 0 to 100 (0 no effect, 100 complete control)
[7] = Preemergence, 62 g ai/ha, scale 0 to 100
[8] = Preemergence, 125 g ai/ha, scale 0 to 100
[9] = Postemergence, 8 g ai/ha, scale 0 to 100
[10] = Postemergence, 16 g ai/ha, scale 0 to 100
[11] = Postemergence, 62 g ai/ha, scale 0 to 100
[12] = Postemergence, 125 g ai/ha, scale 0 to 100
[13] = 62 g ai/ha, scale 0 to 100 (0 no effect, 100 complete control)

With `Cc1nn(-c2ccc(F)cc2)nc1Cc1ccnc(C(F)(F)F)c1` [Compound 16, 4-[[2-(4-fluorophenyl)-5-methyl-2H-1,2,3-triazol-4-yl]methyl]-2-(trifluoromethyl)pyridine] the “Plant response rating: Foxtail, Giant” value ([1]; 8 g ai/ha) was 5, the “Plant response rating: Foxtail, Giant” value ([1]; 16 g ai/ha) was 80 and the “Plant response rating: Foxtail, Giant” value ([1]; 31 g ai/ha) was 100. The “Plant response rating: Foxtail, Giant” value ([1]; 125 g ai/ha) was 100, the “Plant response rating: Ryegrass, Italian” value ([2]; Preemergence, 8 g ai/ha) was 0 and the “Plant response rating: Ryegrass, Italian” value ([2]; Preemergence, 16 g ai/ha) was 0. For the same compound, the “Plant response rating: Ryegrass, Italian” value ([2]; Preemergence, 31 g ai/ha) was 30, the “Plant response rating: Ryegrass, Italian” value ([2]; Preemergence, 62 g ai/ha) was 50 and the “Plant response rating: Ryegrass, Italian” value ([2]; Preemergence, 125 g ai/ha) was 98.

With `Cc1nn(-c2ccc(C(F)(F)F)cc2)nc1Cc1ccnc(C(F)(F)F)c1` [Compound 47, 4-[[5-methyl-2-[4-(trifluoromethyl)phenyl]-2H-1,2,3-triazol-4-yl]methyl]-2-(trifluoromethyl)pyridine] the “Plant response rating: Foxtail, Giant” value ([1]; 16 g ai/ha) was 90, the “Plant response rating: Foxtail, Giant” value ([1]; 31 g ai/ha) was 100 and the “Plant response rating: Foxtail, Giant” value ([1]; 62 g ai/ha) was 100. For the same compound, the “Plant response rating: Foxtail, Giant” value ([1]; 125 g ai/ha) was 100, the “Plant response rating: Foxtail, Giant” value ([1]; 250 g ai/ha) was 100 and the “Plant response rating: Ryegrass, Italian” value ([2]; Postemergence, 250 g ai/ha) was 80. For the same compound, the “Plant response rating: Ryegrass, Italian” value ([2]; Postemergence, 16 g ai/ha) was 10, the “Plant response rating: Ryegrass, Italian” value ([2]; Postemergence, 31 g ai/ha) was 20 and the “Plant response rating: Ryegrass, Italian” value ([2]; Postemergence, 62 g ai/ha) was 30. The “Plant response rating: Ryegrass, Italian” value ([2]; Postemergence, 125 g ai/ha) was 50, the “Plant response rating: Ryegrass, Italian” value ([2]; Preemergence, 16 g ai/ha) was 20 and the “Plant response rating: Ryegrass, Italian” value ([2]; Preemergence, 31 g ai/ha) was 40. For the same compound, the “Plant response rating: Ryegrass, Italian” value ([2]; Preemergence, 62 g ai/ha) was 70, the “Plant response rating: Ryegrass, Italian” value ([2]; Preemergence, 125 g ai/ha) was 100 and the “Plant response rating: Ryegrass, Italian” value ([2]; Preemergence, 250 g ai/ha) was 100.

For `Cc1nn(-c2ccc(F)cc2)nc1Oc1ccnc(C(F)(F)F)c1` [Compound 129, 4-[[2-(4-fluorophenyl)-5-methyl-2H-1,2,3-triazol-4-yl]oxy]-2-(trifluoromethyl)pyridine], the “Plant response rating: Foxtail, Giant” value ([1]; 8 g ai/ha) was 0, the “Plant response rating: Foxtail, Giant” value ([1]; 16 g ai/ha) was 20 and the “Plant response rating: Foxtail, Giant” value ([1]; 31 g ai/ha) was 75. The “Plant response rating: Foxtail, Giant” value ([1]; 62 g ai/ha) was 98, the “Plant response rating: Foxtail, Giant” value ([1]; 125 g ai/ha) was 100 and the “Plant response rating: Ryegrass, Italian” value ([2]; Preemergence, 8 g ai/ha) was 0. For the same compound, the “Plant response rating: Ryegrass, Italian” value ([2]; Preemergence, 16 g ai/ha) was 25, the “Plant response rating: Ryegrass, Italian” value ([2]; Preemergence, 31 g ai/ha) was 25 and the “Plant response rating: Ryegrass, Italian” value ([2]; Preemergence, 62 g ai/ha) was 40. The “Plant response rating: Ryegrass, Italian” value ([2]; Preemergence, 125 g ai/ha) was 60.

With `Fc1ccc(-n2nc(Cc3ccnc(C(F)(F)F)c3)c(OCC(F)(F)F)n2)cc1` [Compound 142] the “Plant response rating, Beggarticks” value [3, 5] was 0, the “Plant response rating, Beggarticks” value [3, 6] was 40 and the “Plant response rating, Beggarticks” value [3, 7] was 65. For the same compound, the “Plant response rating, Beggarticks” value [3, 8] was 75.

For `Cc1nn(-c2ccc(F)c(F)c2)nc1Oc1ccnc(C(F)(F)F)c1` [Compound 145], the “Plant response rating, Pigweed, Palmer” value [4, 9] was 40, the “Plant response rating, Pigweed, Palmer” value [4, 10] was 70 and the “Plant response rating, Pigweed, Palmer” value [4, 11] was 85. For the same compound, the “Plant response rating, Pigweed, Palmer” value [4, 12] was 90, the “Plant response rating, Beggarticks” value [3, 9] was 10 and the “Plant response rating, Beggarticks” value [3, 10] was 25. For the same compound, the “Plant response rating, Beggarticks” value ([3]; Postemergence, 31 g ai/ha, scale 0 to 100) was 30, the “Plant response rating, Beggarticks” value [3, 11] was 35 and the “Plant response rating, Beggarticks” value [3, 12] was 45.

With `CCCc1nn(-c2ccc(F)cc2)nc1Cc1ccnc(C(F)(F)F)c1` [Compound 153] the “Plant response rating, Pigweed, Palmer” value [4, 5] was 98, the “Plant response rating, Pigweed, Palmer” value [4, 6] was 100 and the “Plant response rating, Pigweed, Palmer” value [4, 8] was 100. The “Plant response rating, Pigweed, Palmer” value ([4]; Preemergence, 250 g ai/ha, scale 0 to 100) was 100, the “Plant response rating, Beggarticks” value [3, 5] was 0 and the “Plant response rating, Beggarticks” value [3, 6] was 25. For the same compound, the “Plant response rating, Beggarticks” value [3, 7] was 35, the “Plant response rating, Beggarticks” value [3, 8] was 65 and the “Plant response rating, Barnyardgrass” value (Barnyardgrass) was 45. The “Plant response rating, Oilseed Rape” value (Oilseed Rape; 31 g ai/ha, scale 0 to 100 (0 no effect, 100 complete control)) was 90, the “Plant response rating, Oilseed Rape” value (Oilseed Rape; [13]) was 90 and the “Plant response rating, Oilseed Rape” value (Oilseed Rape; 250 g ai/ha, scale 0 to 100) was 95.

In the case of `CCc1nn(-c2ccc(F)cc2)nc1Oc1ccnc(C(F)(F)F)c1` [Compound 166], the “Plant response rating, Barnyardgrass” value (Barnyardgrass) is reported as 45, the “Plant response rating, Oilseed Rape” value (Oilseed Rape; [13]) is reported as 5 and the “Plant response rating, Oilseed Rape” value (Oilseed Rape; 250 g ai/ha, scale 0 to 100) is reported as 40.

For `CCCc1nn(-c2ccc(C(F)(F)F)c(F)c2)nc1Oc1ccnc(C(F)(F)F)c1` [Compound 185], the “Plant response rating, Barnyardgrass” value (Barnyardgrass) was 70 and the “Plant response rating, Oilseed Rape” value (Oilseed Rape; [13]) was 50.
